Tested on: cccDNA in HepDES19 cells
Test: cccDNA Southern Blot assay
Format: cell-based, HBV
Conditions: 5 days' compound treatment, FIG. 1
Description: HepDES19 cells were seeded at 4*10^6 cells per T150 in the culture medium (Dulbecco's Modified Eagle Medium: Nutrient Mixture F-12 [DMEM-F12, Gibco Cat. 11320-82], 10% Fetal Bovine Serum [FBS, Clontech Cat. 631101], 0.1 mM Non-Essential Amino Acids Solution [NEAA, Gibco Cat. 11140-050], 50 μg/mL Penicillin-Streptomycin [PS, Invitrogen Cat. 15140-163], 500 μg/mL Geneticin [G418, Invitrogen Cat. 10131-027]) in the absence of Tet for 8 days. These cells were seeded at the density of 1×10^6 cells per well in 6-well plate. At 24 hours after seeding, serial dilutions of compounds made with DMSO (Sigma, Cat. D2650) were further diluted with the same culture medium as described above before they were added to the cells to reach desired final compound concentrations and 1% DMSO concentration. After 5 days' compound treatment, the cells growing in one well from 6-well plate were re-suspended with 500 μL re-suspension buffer (50 mM tris [hydroxymethyl]amino methane pH 7.5), 10 mM ethylenediaminetetraacetic acid (EDTA), 50 μg/mL RNase A [Qiagen, Cat. 158922], 500 μL of 1.2% sodium dodecyl sulfate (SDS) was then added into the re-suspended cells to lyse the cells. After 15 minutes' incubation, 700 μL precipitation buffer (3M cesium chloride, 1M potassium acetate, 0.67M acetic acid) was added and the lysate was incubated at 4° C. for 2 h. […]

O=c1cc(-c2ccc(Br)cc2OCCO[C@H]2C[C@@H](C(=O)O)C2)oc2c(Cl)cccc12 [Example C003-A, Cis-3-[2-[5-bromo-2-(8-chloro-4-oxo-chromen-2-yl)phenoxy]ethoxy]cyclobutanecarboxylic acid]
cccDNA level (Southern Blot): dose-dependently reduced cccDNA level
